Key:
[1] = test system: ABUTH; assay: Pre-emergence herbicidal action against ABUTH; format: in vivo, Abutilon theophrasti; settings: for Pre-emergence action against ABUTH (herbicidal activity): 80 g/ha, scored visually after 3 weeks vs untreated controls (100% = plants have died, 0% = like control plants); for Pre-emergence action against ABUTH (herbicidal activity in percent): dosage 20 g/ha, scored visually after 3 weeks vs untreated controls, 100% = plants have died, 0% = like control plants
Summary of the method: (§1)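 Sandy loam pots, seeds covered with soil, then surface-treated with WP or EC formulations at 600–800 l/ha water plus 0.2% wetting agent. Greenhouse, 3 weeks. Percent damage vs untreated controls.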

[2] = test system: AMARE; assay: Pre-emergence herbicidal action against AMARE; format: in vivo, Amaranthus retroflexus
Summary of the method: as §1

[3] = test system: SETVI; assay: Pre-emergence herbicidal action against SETVI; format: in vivo, Setaria viridis; settings: dosage 80 g/ha
Summary of the method: as §1

[4] = test system: STEME; assay: Pre-emergence herbicidal action against STEME; format: in vivo, Stellaria media
Description: Seeds of monocotyledonous and dicotyledonous weed plants and crop plants are laid out in sandy loam soil in wood-fiber pots and covered with soil. The compounds of the invention, formulated in the form of wettable powders (WP) or as emulsion concentrates (EC), are then applied to the surface of the covering soil in the form of an aqueous suspension or emulsion at a water application rate equivalent to 600 to 800 l/ha, with addition of 0.2% wetting agent. After the treatment, the pots are placed in a greenhouse and kept under good growth conditions for the trial plants. The damage to the test plants is scored visually after a test period of 3 weeks by comparison with untreated controls (herbicidal activity in percent (%): 100% activity=the plants have died, 0% activity=like control plants). […] The tables below illustrate, in an illustrative manner, the post-emergence herbicidal action of the compounds of the invention, the herbicidal activity being stated in percent.

[5] = test system: VIOTR; assay: Pre-emergence herbicidal action against VIOTR; format: in vivo, Viola tricolor; settings: dosage 80 g/ha
Summary of the method: as §1

[6] = test system: DIGSA; assay: Pre-emergence herbicidal action against DIGSA; format: in vivo, Digitaria sanguinalis
Summary of the method: as §1

[7] = test system: ABUTH; assay: Post-emergence herbicidal action against ABUTH; format: in vivo, Abutilon theophrasti; settings: visual assessment about 3 weeks after treatment vs untreated controls
Summary of the method: (§2)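 Herbicidal action is a visual percentage rating (0% = as untreated control, 100% = plants dead) made roughly 3 weeks after treatment. Plants were grown in sandy loam in the greenhouse and treated at the one-leaf stage, 2 to 3 weeks post-sowing. Treatment was a foliar spray of wettable-powder or emulsion-concentrate formulations at 600 to 800 l/ha water plus 0.2% wetting agent.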

[8] = test system: AMARE; assay: Post-emergence herbicidal action against AMARE; format: in vivo, Amaranthus retroflexus; settings: 20 g/ha, visual assessment about 3 weeks after treatment, 100% = plants have died, 0% = like control plants
Summary of the method: as §2

[9] = test system: ECHCG; assay: Post-emergence herbicidal action against ECHCG; format: in vivo, Echinochloa crus-galli
Summary of the method: as §2

[10] = test system: SETVI; assay: Post-emergence herbicidal action against SETVI; format: in vivo, Setaria viridis
Summary of the method: as §2

[11] = test system: STEME; assay: Post-emergence herbicidal action against STEME; format: in vivo, Stellaria media
Experimental: Seeds of monocotyledonous and dicotyledonous weed and crop plants are laid out in sandy loam soil in wood-fiber pots, covered with soil and cultivated in a greenhouse under good growth conditions. 2 to 3 weeks after sowing, the test plants are treated at the one-leaf stage. The compounds of the invention, formulated in the form of wettable powders (WP) or as emulsion concentrates (EC), are then sprayed onto the green parts of the plants in the form of an aqueous suspension or emulsion at a water application rate equivalent to 600 to 800 l/ha, with addition of 0.2% wetting agent. After the test plants have been left to stand in the greenhouse under optimal growth conditions for about 3 weeks, the action of the preparations is assessed visually in comparison to untreated controls (herbicidal action in percent (%): 100% activity=the plants have died, 0% activity=like control plants). […] The tables below illustrate, in an illustrative manner, the post-emergence herbicidal action of the compounds of the invention, the herbicidal activity being stated in percent.

[12] = test system: DIGSA; assay: Post-emergence herbicidal action against DIGSA; format: in vivo, Digitaria sanguinalis; settings: for Post-emergence action against DIGSA: 20 g/ha
Summary of the method: as §2

[13] = test system: ECHCG; assay: Pre-emergence herbicidal action against ECHCG; format: in vivo, Echinochloa crus-galli; settings: 80 g/ha
Summary of the method: as §1

[14] = test system: MATIN; assay: Pre-emergence herbicidal action against MATIN; format: in vivo, Matricaria inodora
Summary of the method: as §1

[15] = test system: ALOMY; assay: Pre-emergence herbicidal action against ALOMY; format: in vivo, Alopecurus myosuroides; settings: 80 g/ha, pre-emergence, scored visually after 3 weeks vs untreated controls (100% = plants have died, 0% = like control plants)
Summary of the method: as §1

[16] = test system: ALOMY; assay: Post-emergence herbicidal action against ALOMY; format: in vivo, Alopecurus myosuroides; settings: dosage 20 g/ha, visual assessment about 3 weeks after treatment vs untreated controls
Summary of the method: as §2

[17] = 20 g/ha, scored visually after 3 weeks vs untreated controls, 100% = plants have died, 0% = like control plants
[18] = 80 g/ha, scored visually after 3 weeks vs untreated controls (100% = plants have died, 0% = like control plants)

SMILES | Pre-emergence action against ABUTH (herbicidal activity) [1] [%] | Pre-emergence action against ABUTH (herbicidal activity in percent) [1] [%] | Pre-emergence action against AMARE in % [2, 17] [%] | Pre-emergence action against AMARE in % [2, 18] [%] | Pre-emergence action against SETVI in % [3] [%] | Pre-emergence action against STEME in % ([4]; dosage 80 g/ha) [%] | Pre-emergence action against VIOTR in % [5] [%] | Pre-emergence action against DIGSA in % ([6]; dosage 20 g/ha) [%] | Pre-emergence action against DIGSA in % ([6]; dosage 80 g/ha) [%] | Post-emergence action against ABUTH in % ([7]; dosage 5 g/ha) [%] | Post-emergence action against ABUTH in % ([7]; dosage 20 g/ha) [%] | Post-emergence action at 20 g/ha against AMARE in % [8] [%] | Post-emergence action against ECHCG in % ([9]; dosage 20 g/ha) [%] | Post-emergence action against SETVI in % ([10]; dosage 5 g/ha) [%] | Post-emergence action against SETVI in % ([10]; dosage 20 g/ha) [%] | Post-emergence action against STEME in % ([11]; 20 g/ha) [%] | Post-emergence action against DIGSA [12] [%] | Pre-emergence action against ECHCG in % [13] [%] | Pre-emergence action against MATIN in % ([14]; dosage 20 g/ha) [%] | Pre-emergence action against MATIN in % ([14]; dosage 80 g/ha) [%] | other results
NC(=O)c1c(C(F)(F)F)ccc(C(=O)Nc2nnco2)c1Cl [Example 5-253] | 100 | 90 | 100 | 100 | 80 | 90 | 90 | 80 | 90 | 90 | 90 | 80 | 80 | 80 | 80 | 80 | 80 |  |  |  | 
Cc1nnc(NC(=O)c2ccc(C(F)F)c(C(=O)NC3CC3)c2C)o1 [Example 6-33] | 90 |  | 90 | 100 | 100 |  | 100 | 80 | 100 |  | 80 | 90 | 80 | 80 | 80 | 80 |  | 100 | 80 | 90 | 
CCc1c(C(=O)Nc2nnc(C)o2)ccc(C(F)(F)F)c1C(=O)NC1CC1 [Example 6-212] | 90 | 80 | 90 | 90 | 90 | 90 |  | 100 | 100 | 80 | 90 | 90 | 90 |  | 80 | 90 | 90 | 90 | 80 | 90 | Pre-emergence action against ALOMY (herbicidal activity) [15]: 80%; Pre-emergence action against STEME in % ([4]; dosage 20 g/ha): 80%; Post-emergence action against ALOMY in % [16]: 80%; Post-emergence action against ECHCG in % ([9]; dosage 5 g/ha): 90%; Post-emergence action against STEME in % ([11]; dosage 5 g/ha): 80%; Post-emergence action against DIGSA in % ([12]; 5 g/ha): 80%

Source: patent US12655116B2, “Substituted isophthalic acid diamides” (Bayer Aktiengesellschaft, priority 2020, dated 2026)
